From patent US4824868A, “Propylamine derivatives useful for the treatment of dementia” (Ciba-Geigy Corporation, priority 1987, dated 1989)
Counter-ions that a name gives are not always drawn.

Legend:
[1] = test system: serotonin (5-HT) uptake, rat whole brain synaptosomes; test: Inhibition of tritiated serotonin uptake into synaptosomes from rat whole brain in vitro; assay type: biochemical; conditions: for IC50: rat whole brain synaptosomes, 3H-5-HT about 1×10^-7 M, 5 min preincubation, 4 min incubation
Experimental: (§1) Compounds of the previous examples are tested for their ability to block the uptake of tritiated serotonin into synaptosomal nerve endings from rat whole brain in vitro essentially by the method of Thornburg and Moore as described in Res. Comm. Chem. Pathol. Pharmacol. 5, 81 (1973). The preincubation period of the test compound (added in ethanol solution) with the whole brain synaptosome suspension in Krebs buffer is 5 minutes. The incubation period, following the addition of tritiated serotonin (^3 H-5-HT) to a final concentration of about 1×10^-7 M, is 4 minutes. The concentration of test agent required to inhibit serotonin uptake by 50% of control value i.e. the IC50, is determined graphically and expressed in micromolar concentration.

[2] = test system: norepinephrine (NE) uptake, rat whole brain synaptosomes; test: Inhibition of tritiated norepinephrine uptake into synaptosomes from rat whole brain in vitro; assay type: biochemical; conditions: 3H-NE
Experimental: as §1
The concentration of test agent required to inhibit norepinephrine (NE) uptake by 50% of the control value, i.e., the IC50 is similarly determined using tritiated norepinephrine (^3 H-NE) and is also expressed in micromolar concentration.

[3] = test system: serotonin (5-HT) uptake, rat midbrain synaptosomes; test: Inhibition of 3H-5-HT uptake in rat midbrain synaptosomes in vitro; assay type: biochemical; conditions: rat midbrain-diencephalon synaptosomes; 5-HT 2.5×10^-9 M; 10 minutes
Experimental: The inhibition of serotonin (5-HT) uptake indicative of potential antidepressant activity is determined in rat midbrain synaptosomes in vitro as follows:
Synaptosomes from the rat midbrain-diencephalon region are prepared and the uptake of ^3 H-5-HT measured as described by Baumann and Maitre, Naunyn-Schmiedeberg's Arch. Pharmacol. 300, 31 (1977). The concentration of 5-HT in the incubation medium is 2.5×10^-9 M, and the incubation period is 10 minutes. The concentration of a compound of this invention required to inhibit serotonin uptake by 50%, i.e. the IC50, is determined.

[4] = test system: norepinephrine (NE) uptake, rat midbrain synaptosomes; test: Inhibition of 3H-NE uptake in rat midbrain synaptosomes in vitro; assay type: biochemical; conditions: rat midbrain-diencephalon synaptosomes; NE 1×10^-8 M; 20 minutes
Experimental: The inhibition of norepinephrine (NE) uptake is determined in rat midbrain synaptosomes in vitro as follows:
Synaptosomes from the rat midbrain-diencephalon region are prepared and the uptake of ^3 H-NE is measured as described by Baumann and Maitre, Naunyn-Schmiedeberg's Arch. Pharmacol. 300, 31 (1977). The concenrtration of NE in the incubation medium is 1×10^-8 M, and the incubation period is 20 minutes. The concentration required to inhibit norepinephrine uptake by 50%, i.e. the IC50, is determined.

serotonin uptake = test: H 75/12 test: inhibition of the serotonin depleting effect of H 75/12 in rat brain; assay type: in vivo; conditions: for ED50: oral, 30 minutes before H 75/12 (25 mg/kg s.c.), 4 hours
Experimental: The inhibition of the serotonin depleting effect of 3-hydroxy-4-methyl-α-ethylphenethylamine (H 75/12) in rat brain serves as an indirect indication of serotonin uptake inhibitory activity. (Carlsson, Corrodi, Fuxe and Hoekfelt, Europ. J. Pharmacol. 5, 357, 1969). A diminution of serotonin release by H 75/12 is considered to be due to a serotonin uptake inhibitory effect of the test compound. The compound to be tested is administered orally 30 minutes before H 75/12 (25 mg/kg s.c.) and the animals are decapitated 4 hours thereafter. The brains are immdiately taken out and serotonin is determined as described above. The ED50 represents the dose of the test compound inhibiting the serotonin-depleting effect of H75/12 by 50%.

serotonin (5-HT) uptake = test: Serotonin (5-HT) uptake inhibition in rats pretreated with compounds; assay type: in vivo, rat
Experimental: Serotonin (5-HT) uptake inhibition is also determined in rats pretreated with compounds of the instant invention.

[5] = test system: reserpine treated rabbits; test: Reversal of reserpine-induced ptosis in the rabbit; assay type: in vivo; conditions: reserpine 2 mg/kg i.v. 90 minutes before i.v. infusion of 0.2% drug solution
Experimental: The serotonin uptake inhibiting or serotonin activating properties of the compounds of the invention are indicative of antidepressant properties as determined by the reversal of reserpine-induced ptosis (i.e. […]) in the rabbit. Rabbits are injected intravenously with 2 mg/kg reserpine 90 minutes before the i.v. infusion of 0.2% drug solution into the ear vein according to the method of J. Mizoule et al. (J. Pharmacol., 8, 3, 269-285, 1977). The complete opening of the eye-lids is taken as a criterion for reversal of the reserpine-induced ptosis. The results are expressed in terms of the mean dose of test compound inducing complete opening of the eye-lids in reserpine treated rabbits.

SMILES	IC50 [1]	IC50 [2]	further results
CNCC(COc1cccc(OC)c1)Cc1ccccc1 (centres unmarked) [Example 5, N-methyl-2-benzyl-3-(3-methoxyphenoxy)propylamine oxalate]	940 nM	1.39 µM	
COc1cccc(OCC(Cc2ccccc2)CN(C)C)c1 (centres unmarked) [3/1]	430 nM	4.3 µM	
Cc1ccc(OCC(Cc2ccccc2)CN(C)C)cc1 (centres unmarked) [3/7]	1220 nM	12.5 µM	
CCN(CC)CC(COc1ccccc1)Cc1ccccc1.Cl (centres unmarked) [Example 16, N,N-diethyl-2-benzyl-3-phenoxypropylamine hydrochloride, reference compound]	7300 nM	3.3 µM	IC50 [3]: 2200 nM; IC50 [4]: 2000 nM; inhibition of the serotonin-depleting effect of H 75/12 (serotonin uptake; 30 mg/Kg p.o.): 17%; in vivo serotonin uptake inhibitory activity (serotonin uptake; 30 mg/Kg p.o., in words): no significant in vivo serotonin uptake inhibitory activity; selectivity (serotonin vs norepinephrine uptake) in in vitro tests ([1]; in vitro, whole brain and midbrain synaptosomes, in words): no selectivity is seen in in vitro tests
CNCC(COc1ccc(C(F)(F)F)cc1)Cc1ccccc1 (centres unmarked) [Example 4, N-methyl-2-benzyl-3-(4-trifluoromethylphenoxy)propylamine hydrochloride]	390 nM	12.6 µM	
COc1ccc(OCC(Cc2ccccc2)CN(C)C)cc1 (centres unmarked) [3/16]	560 nM	0.57 µM	
CN(C)CC(COc1ccccc1Cl)Cc1ccccc1 (centres unmarked) [3/3]	1300 nM	5.3 µM	
CN(C)CC(COc1cccc(Cl)c1)Cc1ccccc1 (centres unmarked) [3/6]	2700 nM	16.1 µM	
CSc1ccc(OCC(Cc2ccccc2)CN(C)C)cc1.O=C(O)C(=O)O (centres unmarked) [3/2, N,N-dimethyl-2-benzyl-3-(4-methylmercaptophenoxy)-propylamine oxalate]	270 nM	10.8 µM	IC50 [3]: ~30 nM; IC50 [4]: ~500 nM; inhibition of 3H-5HT uptake (serotonin (5-HT) uptake; 30 mg/kg p.o.): about 80%; mean dose inducing complete opening of the eye-lids [5]: about 7.7 mg/kg i.v.; ED50 (serotonin uptake): ~2.3 mg/kg
CN(C)CC(COc1ccc(Cl)cc1)Cc1ccccc1 (centres unmarked) [3/4]	1490 nM	12 µM	
CNCC(COc1ccc(SC)cc1)Cc1cccc(Cl)c1 (centres unmarked) [6/3]	2700 nM	11 µM	
CN(C)CC(COc1ccc(C(F)(F)F)cc1)Cc1ccccc1.O=C(O)C(=O)O (centres unmarked) [Example 1, N,N-dimethyl-2-benzyl-3-(4-trifluoromethylphenoxy)propylamine oxalate]	490 nM	15.2 µM	IC50 [3]: ~15 nM; IC50 [4]: ~3000 nM; inhibition of 3H-5HT uptake (serotonin (5-HT) uptake; 30 mg/kg p.o.): ~60%; mean dose inducing complete opening of the eye-lids [5]: ~12.6 mg/kg i.v.; ED50 (serotonin uptake): ~4.5 mg/kg
C=CCOc1cccc(OCC(Cc2ccccc2)CN(C)C)c1 (centres unmarked) [3/13]	590 nM	1.44 µM	
CN(C)CC(COc1cccc(C(F)(F)F)c1)Cc1ccccc1 (centres unmarked) [3/10]	2250 nM	6.9 µM	
Cc1cccc(OCC(Cc2ccccc2)CN(C)C)c1 (centres unmarked) [3/8]	1250 nM	3.25 µM	
CN(C)CC(COc1ccc(C(F)(F)F)cc1)Cc1cccc(Cl)c1 (centres unmarked) [3/15]	6000 nM	32 µM	
CNCC(COc1ccccc1OC)Cc1ccccc1 (centres unmarked) [Example 8, N-methyl-2-benzyl-3-(2-methoxyphenoxy)propylamine oxalate]	5400 nM	8.9 µM	
COc1cc(OC)cc(OCC(Cc2ccccc2)CN(C)C)c1 (centres unmarked) [3/12]	1520 nM	4.3 µM	
COc1cccc(SCC(Cc2ccccc2)CN(C)C)c1 (centres unmarked) [3/11]	1950 nM	7.6 µM	
CSc1ccc(OCC(Cc2ccc(Cl)cc2)CN(C)C)cc1 (centres unmarked) [3/14]	670 nM	7.1 µM	
COc1ccc(OCC(Cc2ccccc2)CN2CCCCC2)cc1 (centres unmarked) [3/5]	6100 nM	39.5 µM	
COc1ccc(SCC(Cc2ccccc2)CN(C)C)cc1 (centres unmarked) [3/9]	1530 nM	8.1 µM	
CNCC(COc1ccc(C(F)(F)F)cc1)Cc1ccccc1.O=C(O)C(=O)O (centres unmarked) [N-methyl-2-benzyl-3-(4-trifluoromethylphenoxy)-propylamine oxalate]			IC50 [3]: ~10 nM; IC50 [4]: ~2000 nM; inhibition of 3H-5HT uptake (serotonin (5-HT) uptake; 10 mg/kg p.o.): ~50%; mean dose inducing complete opening of the eye-lids [5]: ~12.9 mg/kg i.v.; ED50 (serotonin uptake): ~1.8 mg/kg
CNCC(COc1ccc(OC)cc1)Cc1ccccc1 (centres unmarked) [6/1]	440 nM	1.25 µM	
CSc1ccc(OCC(Cc2cccc(Cl)c2)CN(C)C)cc1.O=C(O)C(=O)O (centres unmarked) [Example 2, N,N-dimethyl-2-(3-chlorobenzyl)-3-(4-methylmercaptophenoxy)propylamine oxalate]	30 nM	5 µM	ED50 (serotonin uptake): ~1.4 mg/kg
CNCC(COc1ccc(SC)cc1)Cc1ccccc1 (centres unmarked) [6/2, N-methyl-2-benzyl-3-(4-methylthiophenoxy)propylamine]	140 nM	2.5 µM	
